Measurements published in patent US20260283924A1, “TOPICAL COMPOSITIONS FOR PROMOTING HAIR GROWTH” (ESTETRA SRL, priority 2023, published 2026).

System: human anagen VI scalp HFs (healthy female donors)
Assay: Healthy female donor hair follicle organ culture (ex vivo model), Example 7
Format: cell-based
Details: for hair shaft production: vs vehicle
Protocol: 12-44 full-length frontotemporal hair follicles (HF) were obtained from four healthy human female donors >50 years old. […] Donor 2:29; Donor 3:44; Donor 4:32). After microdissection from skin as described in the art (Edelkamp et al., Methods Mol Biol, 2020, 2154:105-119; and Langan et al., Exp Dermatol, 2015 December; 24(12):903-1), HFs were placed in adequate culture medium and allowed a 24 h rest period to allow them to recover from the trauma of microdissection. Test substance (either vehicle (0.3% EtOH) or E4 at concentrations of 30 μM, 3 μM or 300 nM) was added to the medium at the end of the 24 h. Total culturing time was 5-9 days depending on the stage of the HFs in the vehicle group. The experimental design for a 6-days HF organ culture experiment is depicted in FIG. 9.
This model allows to assess if E4 treatment is able to prolong anagen and/or to delay catagen initiation in healthy female subjects. Clinically, hair loss is associated with a reduction of HFs in anagen or with a shortening of anagen duration. Promoting anagen might thus limit hair loss. The following parameters were investigated:
To determine the HF length, each HF was measured from the end of the bulb connective tissue sheath to the end of the distal outer root sheath (ORS), using a digital light microscope at 50× magnification (VHX 900 Keyence Corporation, Osaka, Japan) and the affiliated software (Edelkamp et al., Methods Mol Biol, 2020, 2154:105-119; and Langan et al., Exp Dermatol, 2015 December; 24(12):903-1). Measurements were obtained at baseline, after 24 h rest period and subsequently every 24-48 h during the entire duration of the experiment. Elongation is expressed as millimeters of growth and/or as percentage elongation from the baseline measurement.
Hair cycle staging and calculation of hair cycle score is indicative of hair cycle progression and anagen-catagen transition (Langan et al., Exp Dermatol, 2015). Hair cycle staging and hair cycle scoring was performed at the end of the culture. The hair cycle stage of each HF was determined according to several established macroscopic and microscopic parameters (Langan et al Exp Dermatol, 2015). Microscopic hair cycle staging was determined using Ki-67/TUNEL immunohistology and Masson-Fontana histochemistry. Hair cycle staging was analyzed by calculating the percentage of HFs in each hair cycle stage. Hair cycle score was determined by giving an arbitrary score to each hair cycle stage as following: anagen: 100, early catagen: 200, mid catagen: 300, late catagen: 400, dystrophic 500.
Germinative hair matrix keratinocytes proliferate mostly during anagen. […] Apoptosis of hair matrix keratinocytes is used as an additional indicator of anagen/catagen transition.
Proliferation was assessed by quantification of the percentage of hair matrix keratinocytes in a clearly specified area (germinative hair matrix keratinocytes, below the Auber's line) that were positive for the proliferation marker Ki67, whereas apoptosis was assessed using TUNEL (TdT-mediated dUTP-biotin nick-end labelling) immunofluorescence in the same keratinocyte population (below the Auber's line) and in the precortical hair matrix keratincoytes (above the Auber's line) (Langan et al., Exp Dermatol 2015) (FIG. 11).
Alkaline phosphatase is an indicator of DP inductivity (Yang, J Dermatol Sci, 2010 January; 57(1):2-11). Alkaline phosphatase in situ activity was measured in the DP.
Versican, a large chondroitin sulfate proteoglycan molecule, is expressed in DP in anagen HFs and diminishes in catagen HFs and its expression correlates with hair inductive properties (Yang, J Dermatol Sci 2010). Versican intensity was analyzed in the DP.
CD34 is a marker expressed by the progeny of HF bulge stem cells. It is expressed in the most external layer of the outer root sheet (ORS) below the isthmus (sub-bulge to suprabulbar regions) (Purba et al., BioEssays, 2014 May; 36(5):513-25). […]

[1] = 300 nM and 30 μM, tendentially vs vehicle
[2] = 300 nM, 3 μM, 30 μM, listed as Estetrol
[3] = 3 μM, significantly vs vehicle, listed as estetrol

With C[C@]12CC[C@@H]3c4ccc(O)cc4CC[C@H]3[C@@H]1[C@@H](O)[C@@H](O)[C@@H]2O [Formulation E4, 1,3,5 (10)-estratrien-3,15alpha,16alpha,17beta-tetrol] the “total number of cells in the DP stalk” value (300 nM and 3 μM) was “significantly reduced the total number of cells in the DP stalk”, the “hair matrix keratinocytes proliferation (Ki-67)” value [1] was “increased hair matrix keratinocytes proliferation” and the “microscopic hair cycle staging: anagen” value [1] was “prolonged anagen”. The “percentage of CD34 positive cells, suprabulbar ORS” value [1] was “increased the percentage of CD34 positive cells”, the “microscopic hair cycle staging: anagen” value (300 nM and 30 μM, tendentially vs vehicle, listed as estetrol) was “maintain longer HFs in anagen” and the “density of cells in the inductive dermal cup” value (300 nM, 3 μM, 30 μM) was “no significant impact on the density of cells in the inductive dermal cup”. For the same compound, the “hair matrix keratinocytes apoptosis (TUNEL)” value (300 nM, 3 μM, 30 μM) was “without affecting hair matrix keratinocytes apoptosis”, the “percentage of K15 positive cells, suprabulbar ORS” value (300 nM, 3 μM, 30 μM) was “did not have any effect on the percentage of K15 positive cells” and the “hair matrix keratinocytes apoptosis (TUNEL)” value [2] was “apoptosis was not affected”. The hair shaft production (300 nM, 3 μM, 30 μM) was “did not modify hair shaft production”, the hair shaft production [2] was “does not impact hair shaft production” and the “proliferation of K15 positive cells (Ki-67), suprabulbar ORS” value (300 nM, significantly vs vehicle) was “decreased their proliferation”. The “percentage of K15 positive cells, bulge basal layer” value (3 μM) was “significantly decreased the percentage of K15 positive cells”, the “proliferation of K15 positive cells (Ki-67), bulge basal layer” value (3 μM and 300 nM, tendentially vs vehicle) was “increased their proliferation” and the “hair matrix keratinocytes proliferation (Ki-67)” value (3 μM, significantly vs vehicle) was “increased hair matrix keratinocytes proliferation”. The “microscopic hair cycle staging: anagen” value (3 μM, significantly vs vehicle) was “prolonged anagen”, the “percentage of CD34 positive cells, suprabulbar ORS” value (3 μM, significantly vs vehicle) was “increased the percentage of CD34 positive cells” and the “hair matrix keratinocytes proliferation (Ki-67)” value [3] was “increases hair matrix keratinocytes proliferation”. For the same compound, the “microscopic hair cycle staging: anagen” value [3] was “maintain longer HFs in anagen”, the “proliferation of K15 positive cells (Ki-67), suprabulbar ORS” value (3 μM, tendentially vs vehicle) was “decreased their proliferation” and the “proliferation of K15 positive cells (Ki-67), bulge basal layer” value (30 μM, significantly vs vehicle) was “increased their proliferation”. The “density of cells in the DP stalk” value (all concentrations) was “tendentially decreased the density of cells”, the “alkaline phosphatase activity in DP cells” value (all tested concentrations) was “tendentially increased” and the “density of cells in the DP” value (all tested concentrations) was “did not strikingly affect the density of cells in the DP”. The “versican expression in DP cells” value (all tested concentrations) was “tendentially increased versican expression”.
